These are literature values, as cited in patent US12378302B2, “Fusion molecules and uses thereof” (Foundation Medicine, Inc., priority 2012, dated 2025).

As a reminder, the EC50 is the concentration giving half of the maximal effect.

Series [1] deals with MEK1/2. To be noted: read-out: IC50 against MEK1/2.
Series [2] concerns cellular pERK.
For series [3], the system named is cytokine production such as IL-1, TNF and IL-6. To be noted: clinical trials.
In series [4] the test system is MM cell lines.
In series [5] the test system is FGFR4, VEGFR2 (KDR).
Series [6] addresses ALK (Homo sapiens, UniProt Q9UM73). To be noted: read-out: IC50 ALK.
Series [7] concerns CDK1/2/3/4/7/9. As to conditions: range over the CDKs.
In series [8] the test system is MEK1, MEK2, ERK2, and JNK2.
Series [9] concerns HCV replicon genotypes and the JFH-1 genotype 2a infectious virus (HCV NS5A). To be noted: cell culture.
In series [10] the test system is VEGFR-1 and FGFR-1.
Series [11] has as its system SRC, LYN, FGR, HCK, KDR, FLT3, and Tie-2.
Series [12] concerns the target c-Kit (Homo sapiens, UniProt P10721).
The subject of series [13] is other protein kinases.
Series [14] relates to ERK1/2 phosphorylation.
The subject of series [15] is Akt-phosphorylation.
The subject of series [16] is Ron, Flt1.
Series [17] has as its target c-Met (Homo sapiens, UniProt P08581). To be noted: read-out: IC50 against c-Met (WT/mutants).
For series [18], the system named is c-Met.
The test system of series [19] is Flt-1, c-Raf and Lck.
In series [20] the test system is PDGFRα/β, Flt-3 and Abl.
The target in series [21] is CSF-1R (Homo sapiens, UniProt P07333). To be noted: read-out: IC50 against CSF-1R.
Series [22] has as its system ERK1 or ERK2.
For series [23], the system named is MEK. As to conditions: read-out: IC50 against MEK.
In series [24] the test system is CDK1/2/5, EGFR, FGFR, PDGFR, and InsR.
The target in series [25] is MEK1 (Homo sapiens, UniProt Q02750). As to conditions: read-out: IC50 against MEK1.
Series [26] concerns Erk1, MKK3, MKK4, c-JUN, PKC, PKA, or CamKII.
For series [27], the target named is MEK2 (Homo sapiens, UniProt P36507). To be noted: read-out: IC50 against MEK2.
The test system of series [28] is Flk-1 and FGFR1 trans-phosphorylation.
The test system of series [29] is IGF-1R, Met, Src, Lck, Zap70, Abl and CDK2.
In series [30] the test system is Abl1, AKT3, c-RAF, CamK1, CDK2, c-Met.
The target in series [31] is c-Raf, B-Raf, ERK1/2.
Series [32] has as its system PDGFR. To be noted: read-out: IC50 against PDGFR.
Series [33] concerns the target EGFR (Homo sapiens, UniProt P00533).

Molecules are shown by their SMILES.

Chain of MEK1 (Q02750 whole entry, species assumed): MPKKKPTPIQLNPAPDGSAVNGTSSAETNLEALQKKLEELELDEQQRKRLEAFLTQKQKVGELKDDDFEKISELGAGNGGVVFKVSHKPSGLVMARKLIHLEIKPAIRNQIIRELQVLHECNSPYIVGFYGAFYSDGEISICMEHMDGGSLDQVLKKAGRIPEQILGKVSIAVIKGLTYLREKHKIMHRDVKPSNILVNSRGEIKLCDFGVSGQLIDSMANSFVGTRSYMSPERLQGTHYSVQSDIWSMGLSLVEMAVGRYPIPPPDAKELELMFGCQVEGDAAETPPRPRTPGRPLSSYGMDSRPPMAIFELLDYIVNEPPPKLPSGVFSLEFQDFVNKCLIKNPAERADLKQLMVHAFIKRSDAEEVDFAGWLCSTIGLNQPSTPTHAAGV
Chain of c-Kit (P10721 26-976): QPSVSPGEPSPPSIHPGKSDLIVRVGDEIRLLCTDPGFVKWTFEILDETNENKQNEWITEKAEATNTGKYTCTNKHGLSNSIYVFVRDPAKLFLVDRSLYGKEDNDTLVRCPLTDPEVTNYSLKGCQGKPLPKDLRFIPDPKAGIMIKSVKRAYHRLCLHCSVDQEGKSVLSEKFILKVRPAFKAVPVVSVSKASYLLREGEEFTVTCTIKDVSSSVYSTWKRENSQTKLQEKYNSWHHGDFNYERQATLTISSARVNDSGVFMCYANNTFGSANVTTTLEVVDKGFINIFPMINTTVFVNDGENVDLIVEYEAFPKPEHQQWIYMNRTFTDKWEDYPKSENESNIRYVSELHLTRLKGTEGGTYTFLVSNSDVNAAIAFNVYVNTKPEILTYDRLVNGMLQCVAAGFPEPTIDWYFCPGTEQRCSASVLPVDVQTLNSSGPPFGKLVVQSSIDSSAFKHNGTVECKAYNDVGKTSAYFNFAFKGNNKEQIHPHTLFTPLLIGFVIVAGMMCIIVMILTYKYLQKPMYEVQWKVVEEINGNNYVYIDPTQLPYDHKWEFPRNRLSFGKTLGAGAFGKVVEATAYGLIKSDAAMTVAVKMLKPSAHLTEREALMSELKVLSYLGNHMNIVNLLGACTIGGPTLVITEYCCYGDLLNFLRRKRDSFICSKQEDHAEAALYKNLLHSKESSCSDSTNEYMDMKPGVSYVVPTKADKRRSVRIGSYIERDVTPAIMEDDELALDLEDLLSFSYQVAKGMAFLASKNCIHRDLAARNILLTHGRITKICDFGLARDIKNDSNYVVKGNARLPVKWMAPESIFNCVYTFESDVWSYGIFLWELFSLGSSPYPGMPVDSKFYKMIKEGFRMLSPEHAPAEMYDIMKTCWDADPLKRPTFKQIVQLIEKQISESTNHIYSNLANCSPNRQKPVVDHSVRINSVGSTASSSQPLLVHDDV
Chain of MEK2 (P36507 whole entry, species assumed): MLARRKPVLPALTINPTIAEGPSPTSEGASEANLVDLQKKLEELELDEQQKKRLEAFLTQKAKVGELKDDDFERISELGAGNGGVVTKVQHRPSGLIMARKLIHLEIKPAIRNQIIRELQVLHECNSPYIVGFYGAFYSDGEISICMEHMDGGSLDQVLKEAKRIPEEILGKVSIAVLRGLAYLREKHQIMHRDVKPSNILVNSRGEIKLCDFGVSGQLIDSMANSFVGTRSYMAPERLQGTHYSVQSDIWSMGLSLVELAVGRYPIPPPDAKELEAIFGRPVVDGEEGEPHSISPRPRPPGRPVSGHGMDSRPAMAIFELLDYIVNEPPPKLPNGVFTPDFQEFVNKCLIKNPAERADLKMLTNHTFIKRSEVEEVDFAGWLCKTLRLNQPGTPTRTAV
Chain of EGFR (P00533 25-1210): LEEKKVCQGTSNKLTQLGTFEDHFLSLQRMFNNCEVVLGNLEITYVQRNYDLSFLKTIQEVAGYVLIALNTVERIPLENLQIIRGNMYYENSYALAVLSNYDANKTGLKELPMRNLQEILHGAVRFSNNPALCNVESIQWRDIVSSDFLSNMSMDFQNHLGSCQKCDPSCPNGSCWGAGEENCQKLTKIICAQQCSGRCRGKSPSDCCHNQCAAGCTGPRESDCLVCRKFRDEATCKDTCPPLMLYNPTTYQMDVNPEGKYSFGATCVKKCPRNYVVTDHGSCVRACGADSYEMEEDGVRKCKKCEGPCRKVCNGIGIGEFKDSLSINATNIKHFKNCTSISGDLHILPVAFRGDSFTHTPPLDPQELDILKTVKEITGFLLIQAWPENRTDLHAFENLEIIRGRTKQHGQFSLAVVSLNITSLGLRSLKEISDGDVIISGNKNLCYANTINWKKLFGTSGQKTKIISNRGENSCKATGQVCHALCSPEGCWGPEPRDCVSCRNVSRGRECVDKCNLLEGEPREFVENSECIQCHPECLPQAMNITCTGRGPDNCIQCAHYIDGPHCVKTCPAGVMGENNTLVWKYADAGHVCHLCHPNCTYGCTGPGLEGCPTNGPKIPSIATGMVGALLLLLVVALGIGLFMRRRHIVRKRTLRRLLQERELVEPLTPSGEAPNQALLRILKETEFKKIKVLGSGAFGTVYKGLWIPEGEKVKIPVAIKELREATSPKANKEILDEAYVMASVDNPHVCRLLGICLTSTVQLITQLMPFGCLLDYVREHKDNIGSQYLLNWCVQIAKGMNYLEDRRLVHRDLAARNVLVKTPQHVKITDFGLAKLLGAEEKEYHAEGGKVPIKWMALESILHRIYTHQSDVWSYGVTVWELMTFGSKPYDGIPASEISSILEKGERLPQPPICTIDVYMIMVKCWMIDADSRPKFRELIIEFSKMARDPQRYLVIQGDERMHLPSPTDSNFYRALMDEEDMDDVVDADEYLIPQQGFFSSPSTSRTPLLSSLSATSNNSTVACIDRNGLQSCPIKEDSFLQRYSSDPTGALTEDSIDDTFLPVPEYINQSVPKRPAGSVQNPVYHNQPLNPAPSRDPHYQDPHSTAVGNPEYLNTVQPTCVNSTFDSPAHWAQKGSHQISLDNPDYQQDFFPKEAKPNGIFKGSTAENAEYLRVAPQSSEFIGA
Chain of ALK (Q9UM73 19-1620): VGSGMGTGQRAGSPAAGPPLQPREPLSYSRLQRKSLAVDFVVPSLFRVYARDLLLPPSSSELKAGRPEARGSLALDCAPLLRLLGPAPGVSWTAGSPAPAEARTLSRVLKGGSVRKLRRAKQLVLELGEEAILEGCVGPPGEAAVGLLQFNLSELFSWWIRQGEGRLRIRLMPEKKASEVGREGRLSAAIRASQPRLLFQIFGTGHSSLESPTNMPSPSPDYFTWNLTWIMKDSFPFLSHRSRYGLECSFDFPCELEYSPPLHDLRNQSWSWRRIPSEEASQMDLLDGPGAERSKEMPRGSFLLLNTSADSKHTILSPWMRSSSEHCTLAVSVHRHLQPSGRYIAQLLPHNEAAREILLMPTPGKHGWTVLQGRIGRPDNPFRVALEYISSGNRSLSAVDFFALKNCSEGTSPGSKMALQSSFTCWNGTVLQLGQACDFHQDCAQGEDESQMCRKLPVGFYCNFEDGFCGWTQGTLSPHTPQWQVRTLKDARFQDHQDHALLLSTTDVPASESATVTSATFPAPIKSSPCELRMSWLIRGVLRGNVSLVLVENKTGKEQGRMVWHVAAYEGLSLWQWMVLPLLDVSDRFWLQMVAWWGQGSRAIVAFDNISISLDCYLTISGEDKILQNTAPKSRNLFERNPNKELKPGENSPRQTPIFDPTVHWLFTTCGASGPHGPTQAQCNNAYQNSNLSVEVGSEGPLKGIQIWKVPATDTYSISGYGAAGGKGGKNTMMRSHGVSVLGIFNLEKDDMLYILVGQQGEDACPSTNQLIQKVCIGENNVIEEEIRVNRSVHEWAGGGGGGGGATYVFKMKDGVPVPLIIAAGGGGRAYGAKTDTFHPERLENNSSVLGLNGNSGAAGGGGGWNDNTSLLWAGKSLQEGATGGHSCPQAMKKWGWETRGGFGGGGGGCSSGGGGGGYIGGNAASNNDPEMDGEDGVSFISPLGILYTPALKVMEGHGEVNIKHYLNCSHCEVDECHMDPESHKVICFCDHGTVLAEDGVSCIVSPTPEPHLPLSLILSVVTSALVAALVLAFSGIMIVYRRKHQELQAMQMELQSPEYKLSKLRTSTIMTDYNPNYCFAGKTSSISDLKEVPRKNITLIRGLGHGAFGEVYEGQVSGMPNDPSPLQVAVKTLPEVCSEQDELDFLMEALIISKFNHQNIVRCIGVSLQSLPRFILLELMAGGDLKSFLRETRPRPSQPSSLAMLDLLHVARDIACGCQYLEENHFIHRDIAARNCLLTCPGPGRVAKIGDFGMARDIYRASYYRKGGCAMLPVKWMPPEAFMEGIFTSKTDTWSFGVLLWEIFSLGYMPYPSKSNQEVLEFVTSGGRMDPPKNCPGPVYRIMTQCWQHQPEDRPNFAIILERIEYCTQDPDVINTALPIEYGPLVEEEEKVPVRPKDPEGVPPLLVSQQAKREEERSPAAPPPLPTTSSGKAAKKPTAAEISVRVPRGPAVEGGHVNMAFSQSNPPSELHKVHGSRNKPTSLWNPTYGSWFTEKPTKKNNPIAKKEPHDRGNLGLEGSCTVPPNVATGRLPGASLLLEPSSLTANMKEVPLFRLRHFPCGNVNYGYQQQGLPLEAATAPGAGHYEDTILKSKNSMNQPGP

Consider `Cn1cnc2c(F)c(Nc3ccc(Br)cc3F)c(C(=O)NOCCO)cc21` [ARRY-162, 5-((4-bromo-2-fluorophenyl)amino)-4-fluoro-N-(2-hydroxyethoxy)-1-methyl-1H-benzo[d]imidazole-6-carboxamide], for which the IC50 in series [1] is 12 nM; in [2], 11 nM. Further, the “Ex vivo effect on cytokine production such as IL-1, TNF and IL-6” value in series [3] is reported as “inhibition”.
As to `O=C(NC[C@H](O)CO)c1ccncc1Nc1ccc(I)cc1F` [AS-703026, (S)—N-(2,3-dihydroxypropyl)-3-(2-fluoro-4-iodophenylamino) isonicotinamide], the IC50 in series [4] is 5 to 2000 nM.
As to `COc1cc(CCc2cc(NC(=O)c3ccc(N4C[C@@H](C)N[C@@H](C)C4)cc3)n[nH]2)cc(OC)c1` [AZD4547, N-(5-(3,5-dimethoxyphenethyl)-1H-pyrazol-3-yl)-4-((3S,5R)-3,5-dimethylpiperazin-1-yl)benzamide], in series [5], the “Activity against FGFR4, VEGFR2 (KDR)” value is given as “weaker activity”.
As for `COc1cc(N2CCC(N)CC2)ccc1Nc1ncc(Cl)c(-c2c[nH]c3ccccc23)n1` [AZD-3463, 2-Pyrimidinamine, N-[4-(4-amino-1-piperidinyl)-2-methoxyphenyl]-5-chloro-4-(1H-indol-3-yl)-], the IC50 in [6] is 22 nM.
For `C[C@@H](O)[C@@H](C)Oc1nc(Nc2ccc(S(=N)(=O)C3CC3)cc2)ncc1C(F)(F)F` (stereo partly drawn) [BAY 1000394, 2-Butanol, 3-[[2-[[4-[[S(R)]—S-cyclopropylsulfonimidoyl]phenyl]amino]-5-(trifluoromethyl)-4-pyrimidinyl]oxy]-, (2R,3R)—], the IC50 in [7] was 5 to 25 nM.
As to `CN(C)Cc1cccc(N/C(=C2\C(=O)Nc3cc(C(=O)N(C)C)ccc32)c2ccccc2)c1` [BIX 02189, (Z)-3-((3-((dimethylamino)methyl)phenylamino)(phenyl)methylene)-N,N-dimethyl-2-oxoindoline-6-carboxamide], in series [8], the “Inhibition of closely related kinases MEK1, MEK2, ERK2, and JNK2” value is given as “does not inhibit”.
As for `COC(=O)N[C@H](C(=O)N1CCC[C@H]1c1ncc(-c2ccc(-c3ccc(-c4cnc([C@@H]5CCCN5C(=O)[C@@H](NC(=O)OC)C(C)C)[nH]4)cc3)cc2)[nH]1)C(C)C` [BMS-790052, Carbamic acid, N,N′-[[1,1′-biphenyl]-4,4′-diylbis[1H-imidazole-5,2-diyl-(2S)-2,1-pyrrolidinediyl[(1S)-1-(1-methylethyl)-2-oxo-2,1-ethanediyl]]]bis-,C,C′-dimethyl ester], the EC50 in [9] is 0.009 to 0.05 nM.
In the case of `Cc1cc2c(F)c(Oc3ncnn4cc(OC[C@@H](C)O)c(C)c34)ccc2[nH]1` [Brivanib, (R)-1-(4-(4-fluoro-2-methyl-1H-indol-5-yloxy)-5-methylpyrrolo[1,2-f][1,2,4]triazin-6-yloxy)propan-2-ol], the “Potency against VEGFR-1 and FGFR-1” value in series [10] is recorded as “moderate potency”.
In the case of `CNC(=O)c1cc(Oc2ccc(NC(=O)Nc3cc(C(C)(C)C)nn3-c3ccc4ncccc4c3)c(F)c2)ccn1` [DCC-2036, 1-(3-tert-butyl-1-(quinolin-6-yl)-1H-pyrazol-5-yl)-3-(2-fluoro-4-(2-(methylcarbamoyl)pyridin-4-yloxy)phenyl)urea], in series [11], the “Inhibition of SRC, LYN, FGR, HCK, KDR, FLT3, and Tie-2” value is “also inhibits”. In [12], the “Activity against c-Kit” value is on record as “low activity”.
`CNC(=O)c1c(F)cccc1Nc1nc(Nc2cc3c(cc2OC)CCN3C(=O)CN(C)C)nc2[nH]ccc12` [GSK1838705A, 2-(2-(1-(2-(dimethylamino)acetyl)-5-methoxyindolin-6-ylamino)-7H-pyrrolo[2,3-d]pyrimidin-4-ylamino)-6-fluoro-N-methylbenzamide]: in series [13], the “activity to other protein kinases” value is on record as “little activity”.
On to `C=CCc1ccc(O)c(-c2ccc(O)c(CC=C)c2)c1` [Honokiol, 2-(4-hydroxy-3-prop-2-enyl-phenyl)-4-prop-2-enyl-phenol], for which the “Effect on ERK1/2 phosphorylation” value in series [14] was “promotes”. Moreover, in series [15], the “Effect on Akt-phosphorylation” value is listed as “inhibits”.
With `CN(C[C@@H]1COCCO1)S(=O)(=O)Nc1ccc2ccc3ncc(-c4cnn(C)c4)cc3c(=O)c2c1` [MK-2461, N-((2R)-1,4-Dioxan-2-ylmethyl)-N-methyl-N′-[3-(1-methyl-1H-pyrazol-4-yl)-5-oxo-5H-benzo[4,5]cyclohepta[1,2-b]pyridin-7-yl]sulfamide], the “Potency to Ron, Flt1” value in [16] is given as “less potent”. Also, in series [17], the IC50 was 0.4 to 2.5 nM. In addition, the “Selectivity of c-Met targets versus FGFR1, FGFR2, FGFR3, PDGFRβ, KDR, Flt3, Flt4, TrkA, and TrkB” value in series [18] is given as 8- to 30 fold.
As for `O=C(Nc1ccc(OC(F)(F)F)cc1)c1sccc1NCc1ccnc2ccccc12` [OSI-930], the “Potency to Flt-1, c-Raf and Lck” value in series [19] is on record as “also potent”. Moreover, in series [20], the “Activity against PDGFRα/β, Flt-3 and Abl” value is recorded as “low activity”. Also, the IC50 in series [21] is 15 nM.
For `COc1cccc(-c2cc(=O)c3ccccc3o2)c1N` [PD98059, 2-(2-amino-3-methoxyphenyl)-4H-chromen-4-one], the “Direct inhibition of ERK1 or ERK2” value in [22] was “does not directly inhibit”. Further, the IC50 in series [23] was […].
`CC(=O)c1c(C)c2cnc(Nc3ccc(N4CCNCC4)cn3)nc2n(C2CCCC2)c1=O` [PD0332991 Isethionate, Ethanesulfonic acid, 2-hydroxy-, compd. with 6-acetyl-8-cyclopentyl-5-methyl-2-[[5-(1-piperazinyl)-2-pyridinyl]amino]pyrido[2,3-d]pyrimidin-7(8H)-one (1:1)]: the “activity against CDK1/2/5, EGFR, FGFR, PDGFR, and InsR” value in series [24] was “no activity”.
`N#C/C(=C(/N)Sc1ccc(N)cc1)c1ccccc1C(F)(F)F` [SL327, (Z)-3-amino-3-(4-aminophenylthio)-2-(2-(trifluoromethyl)phenyl) acrylonitrile]: the IC50 is approximately 180 nM in series [25] and approximately 220 nM in [27]. Further, the “Activity towards Erk1, MKK3, MKK4, c-JUN, PKC, PKA, or CamKII” value in [26] is “no activity”.
As to `Cc1[nH]c(/C=C2\C(=O)Nc3ccccc32)c(C)c1CCC(=O)O` [SU6668, (Z)-3-(2,4-dimethyl-5-((2-oxoindolin-3-ylidene)methyl)-1H-pyrrol-3-yl)propanoic acid], in series [28], the “Inhibition of Flk-1 and FGFR1 trans-phosphorylation” value is listed as “strongly inhibits”. Moreover, the “Activity against IGF-1R, Met, Src, Lck, Zap70, Abl and CDK2” value in series [29] is on record as “little activity”.
As to `Cn1c(=O)c(F)c(Nc2ccc(I)cc2F)c2c(=O)n(C[C@@H](O)CO)cnc21` [TAK-733, (R)-3-(2,3-dihydroxypropyl)-6-fluoro-5-(2-fluoro-4-iodophenylamino)-8-methylpyrido[2,3-d]pyrimidine-4,7(3H,8H)-dione], in series [25], the IC50 was approximately 3.2 nM. The “Activity to Abl1, AKT3, c-RAF, CamK1, CDK2, c-Met” value in series [30] was “inactive”.
Turning to `CC(=O)Nc1cccc(-n2c(=O)n(C3CC3)c(=O)c3c(Nc4ccc(I)cc4F)n(C)c(=O)c(C)c32)c1` [Trametinib, N-(3-{3-Cyclopropyl-5-[(2-fluoro-4-iodophenyl)amino]-6,8-dimethyl-2,4,7-trioxo-3,4,6,7-tetrahydropyrido[4,3-d]pyrimidin-1(2H)-yl}phenyl)acetamide], the “Kinase activities of c-Raf, B-Raf, ERK1/2” value in [31] is “does not inhibit”.
For the compound `COc1cc2ncc(-c3ccccc3)nc2cc1OC` [Tyrphostin AG 1296, Quinoxaline, 6,7-dimethoxy-2-phenyl-], the IC50 in series [32] was 300 to 500 nM. Besides, the “Activity against EGFR” value in [33] is reported as “no activity”.
